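Growth conditions: 96-well plates. Treatment: test compound, 48 hours, 5 concentrations. Analysis: linear interpolation between bracketing concentrations; unreached endpoints set to highest concentration. Abbreviation: GI50, concentration required for 50% inhibition of growth.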 Calls of active or inactive are those of the source. No stated cut-off is given here; in the data, active = GI50 up to about 1.1 µM and inactive = higher.
Columns and labels:
Assay in all cases: DTP human tumour cell line panel, 48 h
CAKI-1 = tested on: CAKI-1
CCRF-CEM = tested on: CCRF-CEM
HCC 2998 = tested on: HCC 2998
HCT-15 = tested on: HCT-15
Hs-578T = tested on: Hs-578T
K562 = tested on: K562
LOX IMVI = tested on: LOX IMVI
MDA-MB-435 = tested on: MDA-MB-435
MDA-N = tested on: MDA-N
NCI-H226 = tested on: NCI-H226
OVCAR-4 = tested on: OVCAR-4
RPMI-8226 = tested on: RPMI-8226
SF-268 = tested on: SF-268
SK-MEL-5 = tested on: SK-MEL-5
U-251 = tested on: U-251
UACC-62 = tested on: UACC-62
OVCAR-5 = tested on: OVCAR-5
SK-OV-3 = tested on: SK-OV-3
TK-10 = tested on: TK-10
NCI-H522 = tested on: NCI-H522

SMILES | GI50 (CAKI-1) | GI50 (CCRF-CEM) | GI50 (HCC 2998) | GI50 (HCT-15) | GI50 (Hs-578T) | GI50 (K562) | GI50 (LOX IMVI) | GI50 (MDA-MB-435) | GI50 (MDA-N) | GI50 (NCI-H226) | GI50 (OVCAR-4) | GI50 (RPMI-8226) | GI50 (SF-268) | GI50 (SK-MEL-5) | GI50 (U-251) | GI50 (UACC-62) | GI50 (OVCAR-5) | GI50 (SK-OV-3) | GI50 (TK-10) | GI50 (NCI-H522)
CCCCOC(=O)c1cc(C(=CCC[C@H]2CC[C@@]3(C)[C@@H](CC[C@@H]4[C@@H]3CC[C@]3(C)[C@@H](C(C)CCCC(C)C)CC[C@@H]43)C2)c2cc(Cl)c(O)c(C(=O)OCCCC)c2)cc(Cl)c1O (some centres not stated) | > 50 µM (inactive) | > 50 µM (inactive) | > 50 µM (inactive) | > 50 µM | > 50 µM (inactive) | > 5 µM (inactive) | > 50 µM (inactive) | > 50 µM (inactive) | > 50 µM (inactive) | > 50 µM (inactive) | > 50 µM (inactive) | > 50 µM (inactive) | > 50 µM (inactive) | > 50 µM (inactive) | > 50 µM (inactive) | > 50 µM (inactive) |  |  |  | 
CCOC(=O)c1cnc2oc3ccc(O)cc3c2c1-c1ccccc1 | > 100 µM (inactive) | 16.4 µM (inactive) | > 100 µM (inactive) | 26.7 µM | 20.6 µM (inactive) | 17.6 µM (inactive) | 21.6 µM (inactive) | 19.2 µM (inactive) | 52.7 µM (inactive) | 32.2 µM (inactive) | 24.4 µM (inactive) | 8.73 µM (inactive) |  | 29.2 µM (inactive) | 44.8 µM (inactive) | 12.8 µM (inactive) | > 100 µM (inactive) | 15.8 µM (inactive) | > 100 µM (inactive) | 
CC#CC(O)(C(=O)OCCCN(C)C)C1CCCCC1 (configuration not stated) |  | > 100 µM (inactive) | > 100 µM (inactive) | > 100 µM | > 100 µM (inactive) | > 100 µM (inactive) | > 100 µM (inactive) | > 100 µM (inactive) | > 100 µM (inactive) | > 100 µM (inactive) |  | > 100 µM (inactive) | > 100 µM (inactive) | > 100 µM (inactive) | > 100 µM (inactive) | > 100 µM (inactive) | > 100 µM (inactive) | > 100 µM (inactive) | > 100 µM (inactive) | 
O=C(O)c1ccccc1NC(=S)c1ccccc1 | 43 µM (inactive) | 45.5 µM (inactive) | < 0.01 µM (active) | 30.3 µM | 53.7 µM (inactive) | 39.2 µM (inactive) | 30.5 µM (inactive) | 52.8 µM (inactive) | 38.7 µM (inactive) |  | 0.0592 µM (active) | 28.2 µM (inactive) | 64 µM (inactive) | 38.5 µM (inactive) | 47.8 µM (inactive) | 30.3 µM (inactive) | > 100 µM (inactive) | 76.4 µM (inactive) | 35.8 µM (inactive) | 13.5 µM (inactive)
O=C(O)CCO/N=C1/C(=C2/C(=O)Nc3ccccc32)Nc2ccccc21 | 4.97 µM (inactive) | 13.8 µM (inactive) | 15.3 µM (inactive) | 6.58 µM | 21.1 µM (inactive) | 36.7 µM (inactive) | 12.4 µM (inactive) | 29.6 µM (inactive) | 28.8 µM (inactive) |  | 26.2 µM (inactive) | 42.2 µM (inactive) | 26.1 µM (inactive) | 13.4 µM (inactive) | 30.3 µM (inactive) | 14.7 µM (inactive) | 40.9 µM (inactive) | 2.98 µM (inactive) | 32.4 µM (inactive) | 50.6 µM (inactive)
O=C1Nc2cccc(Cl)c2/C1=C\c1c(-c2ccccc2)nc2n1CCS2 | 22.9 µM (inactive) | 15 µM (inactive) | 21.3 µM (inactive) | 18.9 µM | 18.9 µM (inactive) | 17.2 µM (inactive) | 16 µM (inactive) | 18.2 µM (inactive) | 18.5 µM (inactive) |  |  | 16.5 µM (inactive) | 20.3 µM (inactive) | 19.5 µM (inactive) | 19.6 µM (inactive) | 17.9 µM (inactive) | 22.8 µM (inactive) | 24.4 µM (inactive) | 13.2 µM (inactive) | 30.2 µM (inactive)
